Literature values, collected in US5180744A, “Aralkyl-N-terminal amino hydroxy” (G. D. Searle & Co., priority 1991, dated 1993).
Square brackets hold non-standard residues; d marks the D form. Peptide text beside a SMILES is read from it. * marks the point of attachment. Sta = CC(C)C[C@H](N)[C@@H](O)CC(=O)O; Isovaleryl = CC(C)CC(=O)*

System: hog renin
Conditions: after the injection of hog renin into nephrectomized rats

For `CC(C)CC(=O)N[C@H](C(=O)N[C@H](C(=O)N[C@@H](CC(C)C)[C@@H](O)CC(=O)N[C@@H](C)C(=O)N[C@@H](CC(C)C)[C@@H](O)CC(=O)O)C(C)C)C(C)C` [pepstatin] (Isovaleryl-VV[Sta]A[Sta]-OH), the “blood pressure in vivo” value is given as “reduce blood pressure in vivo”.
